Assay results reported in patent publication US8541243B2, “Method for assessment of folate phenotypes, disease risk and response to therapy” (The Trustees of the University of Pennsylvania, priority 2008, dated 2013).

Experiments:
[1] = Stability of folates under the acidic/basic conditions of sample work-up; format: physicochemical
Method: (§1) An aliquot of the resulting solution (50 μL) was then analyzed by LC-MRM/MS.
5-FTHF and 10-FTHF undergo dehydration to 5,10-MTHF under acidic conditions in a pH-dependent manner (FIG. 1). In contrast, under neutral or alkaline pH conditions, 5,10-MTHF is converted into 10-FTHF, which then slowly interconverts with 5-FTHF. These different forms of folate are present in RBCs primarily in polyglutamated forms. […] This made it difficult to reliably quantify the individual amounts of 5-FTHF, 10-FTHF, and 5,10-MTHF in the RBCs. Conversion of 5-FTHF and 10-FTHF into 5,10-MTHF proceeded quantitatively at pH 1.5. As a result, it was possible to accurately quantify the pool of folate precursors available for conversion into 5,10-METHF simply by acidifying the RBC extract (FIG. 1). […] They were then acidified to pH 1.5 with 1M HCl ready for analysis of the 5-METHF precursors as 5,10-MTHF (FIG. 1). The [^13C5]-5-FTHF internal standard was quantitatively converted into [^13C5]-5,10-MTHF, which made it possible to accurately quantify the amount of unlabeled 5-FTHF and 10-FTHF, as well as any 5,10-MTHF that had been present in the sample originally. […] However, it is so rapidly utilized in cellular processes by enzymes such as MTHFR, serine hydroxymethyltransferase, and thymidylate synthase (FIG. 6) that it is unlikely to be present in significant quantities.

RBC folate = RBC folate derivatives (LC-MRM/MS) before and after low dose MTX treatment of arthritis patients; format: in vivo, human; conditions: ratio, 24 wk of MTX, Caucasians, 115 pairs
Method: Eight calibration standards were prepared in the range 4.5 to 900 nmol/L in 1% ascorbic acid and 10 mM 2-mercaptoethanol (to prevent oxidation). To 500 μL of whole blood (1:10 diluted with 1% ascorbic acid) was added 20 μL of internal standard solution (150 pg/μL each of [^13C5]-FA, [^13C5]-THF, [^13C5]-5-MTHF, and [^13C5]-5-FTHF). For hydrolysis of folylpolyglutamates, 1N sodium hydroxide (6 μL) was added to each tube to adjust the pH to 5.0 and the samples were mixed immediately. In selected experiments, pteroylhepta-γ-L-glutamic acid (5 ng) was added to replicate […] RBC preparations from five different subjects in order to monitor the efficiency of folylpolyglutamate hydrolysis. […]
as §1
RBC folate concentrations were calculated according to the method of Lamers et al.(2006, Am. J. Clin. Nutr. 84(1):156-61): RBC folate={(whole blood folate×100)−[plasma folate×(100−hematocrit)]}/hematocrit.
Serum MCP-1 levels were measured using a human MCP-1 ELISA kit (BD Biosciences) according to the manufacturer's instructions. Total homocysteine (tHcy) and both plasma and red blood cell (RBC) folate derivatives were measured using stable isotope dilution liquid chromatography, multiple reaction monitoring, mass spectrometry (LC/MRM/MS) as described elsewhere herein. […]

plasma folate = test: Plasma folates (LC-MRM/MS) before and after low dose MTX treatment of arthritis patients; format: in vivo, human; conditions: 24 wk of MTX, Caucasians, 119 pairs
Method: To each plasma sample (300 μL) was added water (200 μL) containing 1% ascorbic acid and 10 mM 2-mercaptoethanol. After the addition of 20 μL internal standard solution (150 pg/μL each of [^13C5]-FA, [^13C5]-THF, [^13C5]-5-MTHF, and [^13C5]-5-FTHF) the samples were thoroughly mixed. Water (1 mL) containing 1% ascorbic acid and 1% methanol was added prior to purification using SPE columns.
The following experiments were designed to assess the phenotypic changes elicited by low dose methotrexate (MTX) treatment. MTX has been widely used as the anti-inflammatory and immunomodulatory agent for the treatment of patients with rheumatoid arthritis and other inflammatory disorders by weekly low-dose (7.5-25 mg).
This indicates a quantitative and qualitative modification of folate phenotype (even though folic acid supplements were prescribed along with the MTX) that results in elevated MCP-1 concentrations (p<0.0001).

Row | Compound | Stability under both acidic and basic conditions [1] | RBC (5,10MT/5MTH) (mean ± SD) (RBC folate; baseline 0.026 ± 0.095) | RBC(THF/5MTH) (mean ± SD) (RBC folate; baseline 0.118 ± 0.387) | Plasma FA (mean ± SD) (plasma folate; baseline 7.10 ± 26.62, folic acid supplements prescribed along with MTX) | Plasma 5MTH (mean ± SD) (plasma folate; baseline 53.14 ± 31.14)
1 | Nc1nc2c(c(=O)[nH]1)N1CN(c3ccc(C(=O)N[C@@H](CCC(=O)O)C(=O)O)cc3)CC1CN2 (some centres unmarked) [5,10-METHF, 5,10-methylenetetrahydrofolic acid] | extremely unstable |  |  |  | 
2 | CN(Cc1cnc2nc(N)nc(N)c2n1)c1ccc(C(=O)N[C@@H](CCC(=O)O)C(=O)O)cc1 [MTX, methotrexate] |  | 0.051 ± 0.241 | 0.175 ± 0.757 | 36.20 ± 63.60 | 39.90 ± 31.51
